Series [1] in a line: Stability in acidic conditions (6 N HCl). The settings on record: 3 h. In kind it is physicochemical. As for the experimental part:
To evaluate pharmacological properties of CCF642-34, the stability in acidic conditions (6 N HCl) and upon exposure to human liver microsomes was tested. […] It was therefore concluded that CCF642-34 may be orally bioavailable and effective against MM in vivo.

Series [2] concerns the target T1, PDIA1 (Homo sapiens, UniProt P07237). The experiment in a line: PDIA1 activity assay, insulin reduction. In kind it is biochemical. The settings on record: read-out: inactivation constant, Kinact for PDIA1. Also on record: His6 (6xHN, pET6xHN-N vector) (N); made in house; host or cells: Escherichia coli BL21 (DE3) NiCo. The method, then: (§1) PDI activity: All PDI activity assays were performed using two different substrates, insulin and di-eosin-diglutathione (di-E-GSSG) as described earlier (Vatolin et al., Ibid) with brief modifications. PDIA1 (1 μM) was incubated for 1 h with varying concentrations of PDIA1 inhibitors 642 or 642-34 (0.1, 03, 1, 5, 10, or 20 μM) in 100 mM sodium phosphate pH 7.0, 2 mM EDTA, and 1% DMSO. Bovine insulin (100 μM) and DTT (1 mM) were added to initiate the reaction. Kinetic readings were taken every minute for 2 h at 650 nm absorbance using a BioTek Synergy plate reader (BioTek Instruments, Inc., Winooski, VT, USA). For highly sensitive fluorescence-based assays, di-E-GSSG as a pseudo substrate was utilized to access the activity of PDIA1. Raturi, A.; Mutus, B., Free. Radic. Biol. Med., 43, 62-70 (2007) Known concentrations of recombinant PDIA1 were mixed with 10 mM GSH and incubated at 37° C. for 30 min in 150 mM K2HPO4/KH2PO4 (pH 7.1) buffer solution. PDI inhibitor was added into the mixture and incubated for an additional 30 min at 37° C. […] Synergy H1 plate reader (BioTek, WI, USA) was used for kinetic analysis using excitation at 518 nm, emission at 545 nm, reads of 0.1 sec/well every minute at 25° C. for 1 h. Baseline fluorescence was determined from di-E-GSSG reactions without PDI and GSH. […]

For series [3], the system named is MM1.S cells. Nature of the series: ER stress response and apoptosis markers by immunoblotting. The format is cell-based, human. Conditions: 3 μM, 4 h. The method, then: FIGS. 6A-6C provide graphs and images showing PDIA1 inhibition by CCF642 analogues induce acute endoplasmic reticulum (ER) stress response and lead to apoptosis. Multiple myeloma cells (MM1.S) were treated with 3 μM of CCF642, -34, -37, -39, -34-A, and Tunicamycin (as a control). The status of ER sensors (XBP-1S, IRE1α oligomerization, and induction of C/EBP homology protein (CHOP)) along with apoptosis markers (cleaved caspase 3 and PARP1) were monitored. (A) MM1.S cells were treated for 4 h with CCF642 and its indicated analogues. (B) MM1.S cells were treated with CCF642-34 in a time course. (C) MM1.S, MM1.S.luc, and BTZ-resistant MM1.S.luc cells were stained with the H2DCFDA ROS detection and then treated with 2.5 μM CCF642-34 up to 4 h.
Immunoblotting: Immunoblotting was performed as described previously (Dallas et al., Blood, 93, 1697-1706 (1999)) using primary antibodies against PDIA1 (Cat #3501), XBP1-S (Cat #12782); IRE1α (Cat #3294), C/EBP homologous protein (CHOP) (Cat #5554), Caspase-3 (Cat #9665), PARP1 (Cat #9542), and GAPDH (Cat #3683) purchased from Cell Signaling Technology, Inc. (Danvers, MA, USA) and used at 1:1000 dilution, unless mentioned otherwise.
In general terms: A western blot detects proteins with antibodies after separation by electrophoresis.

Series [4] concerns MM1.S cells. The experiment in a line: Cell viability assay (CellTiter-Glo), MM1.S. In kind it is cell-based, human. The settings on record: MM cells, in vitro cell culture. As for the experimental part: Cell vi-ability and LD50 for inhibitors were measured in 96 well culture plates (2×10^4 cells/well) after 72 h of treatment using CellTiter-Glo® Luminescent Cell Viability Assay (Promega, Madison, WI, USA). (A) Cell survival assay with MM1.S.luc and BTZ-resistant MM1.S.luc cells. […] (C) Comparison of PDIA1 protein levels in MM1.S.luc and MM1.S.luc BTZ-resistant cells. Band intensity was calculated with Image Lab Version 5.2.1. (D) Cell survival assay with 5TGM1.luc and (E) BTZ-resistant 5TGM1.luc cells. (F) MM1.S cell line was exposed to CCF642-34, and BTZ for 72 h for synergistic drug combination test according to Chou and Talalay method. If the […] remained less than 1, the two drugs were determined as synergistic. […] The number of colony-forming units were plotted for each treatment.
Cell viability assay: Cell viability was measured in 96 well culture plates (2×10^4 cells/well) using CellTiter-Glo® Luminescent Cell Viability Assay (Promega, Madison, WI, USA) according to the manufacturer's protocol.
Background: ATP-based viability assays read luminescence as a measure of living cells.

Series [5] addresses T1, PDIA1. Nature of the series: PDIA1 activity assay, di-E-GSSG reduction (fluorescence). Conditions: di-EGGS assay; read-out: inactivation constant, Kinact for PDIA1. In kind it is biochemical. Also on record: His6 (6xHN, pET6xHN-N vector) (N); made in house; host or cells: Escherichia coli BL21 (DE3) NiCo. As for the experimental part: as §1

T1 sequence (P07237 18-508): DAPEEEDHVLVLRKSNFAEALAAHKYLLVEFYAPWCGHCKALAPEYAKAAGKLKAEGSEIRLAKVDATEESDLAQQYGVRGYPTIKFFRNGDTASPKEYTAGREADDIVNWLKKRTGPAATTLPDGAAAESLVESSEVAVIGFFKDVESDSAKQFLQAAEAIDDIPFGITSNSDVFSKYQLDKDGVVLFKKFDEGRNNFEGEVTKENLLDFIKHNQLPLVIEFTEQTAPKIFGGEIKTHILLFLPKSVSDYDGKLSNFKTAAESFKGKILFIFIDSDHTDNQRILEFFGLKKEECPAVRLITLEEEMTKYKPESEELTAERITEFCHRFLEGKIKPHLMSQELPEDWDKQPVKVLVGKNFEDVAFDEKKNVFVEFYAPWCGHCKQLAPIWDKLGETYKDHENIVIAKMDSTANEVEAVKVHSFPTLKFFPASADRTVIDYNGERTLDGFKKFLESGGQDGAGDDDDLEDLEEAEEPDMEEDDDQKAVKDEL

In the case of `NC(CC1CNc2ccccc21)C(=O)NCCCOc1ccc(N2C(=O)/C(=C/c3ccc([N+](=O)[O-])s3)SC2=S)cc1` (centres unmarked) [CCF642-34], in series [1], the “compound recovered after exposure to acid” value is on record as “greater than 80%”. Moreover, the KI (inactivation) was 100 ± 8.5 nM on PDIA1 [2] and 88 ± 2.8 nM at PDIA1 [5]. The “ER stress response (induction of XBP-1S and CHOP)” value with MM1.S cells [3] is listed as “induced a robust ER stress response”. Besides, the “higher potency compared to CCF642” value with MM1.S cells [4] was about 2 fold.

(Values after patent US12649734B2, “Bioavailable protein disulfide isomerase inhibitors” (THE CLEVELAND CLINIC FOUNDATION, priority 2020, dated 2026).)
